# Experimental data reported in US6841519B1, “Isoxazoline derivatives and herbicides containing the same as the active ingredient” (Kumiai Chemical Industry Co., Ltd., priority 1999, dated 2005).
# Assays:
# Format in all cases: in vivo
# [1] = test system: Echinochloa crus-galli (L.) Beauv. var. crusgalli (Ec); test: Test for herbicidal effect by upland foliage treatment (Test Example 3); details: 100 g/10 a active ingredient, examined at 14th day
# Description: Test For Herbicidal Effect By Upland Foliage Treatment
# An upland field soil was filed in a plastic pot of 80 cm^2. Seeds of Echinochloa crus-galli (L.) Beauv. var. crusgalli (Ec) were sowed. Breeding was made in a greenhouse for 2 weeks. Wettable powders produced in accordance with the Formulation 1 were diluted with water and sprayed on the whole foliage of plants from above the plants using a small sprayer in an amount of 100 liters per 10 ares so that the amount of each active ingredient became 100 g per 10 ares. Then, breeding was made in the greenhouse, and the herbicidal effect of each wettable powder was examined at the 14th day from the treatment in accordance with the standard shown in Table 40.
# [2] = test system: Setaria viridis (L.) Beauv. (Se); test: Test for herbicidal effect by upland field soil treatment (Test Example 2), Se
# Description: (§1) [table] <Test Example 2> Test For Herbicidal Effect By Upland Field Soil Treatment An upland field soil was filed in a plastic pot of 80 cm^2. Seeds of Echinochloa crus-galli (L.) Beauv. var. crusgall (Ec) and Setaria viridis (L.) Beauv. (Se) were sowed, followed by covering with the same soil. Wettable powders produced in accordance with the Formulation 1 were diluted with water and sprayed uniformly: on the soil surface using a small sprayer, in an amount of 100 liters per 10 ares so that the amount of each active ingredient became 100 g per 10 ares. Then, breeding was made in a greenhouse, and the herbicidal effect of each wettable powder was examined at the 21st day from the treatment in accordance with the standard shown in Table 40.
# [3] = test system: Echinochloa oryzicola Vasing. (Eo); test: Test for herbicidal effect by paddy field soil treatment (Test Example 1); details: application amount (active ingredient) 100 g/10 a, examined at the 21st day from the treatment, index per Table 40
# Description: <Test Example 1> Test For Herbicidal Effect By Paddy Field Soil Treatment A paddy field soil was filled in a plastic pot of 100 cm^2 and subjected to puddling. Then, seeds of Echinochloa oryzicola Vasing. (Eo) were sowed and water was filled in a depth of 3 cm. Next day, wettable powders produced in accordance with the Formulation 1 were diluted with water and dropped on the water surface. The application amount of each wettable powder was 100 g per 10 ares in terms of the active ingredient. Then, breeding was made in a greenhouse, and the herbicidal effect of each wettable powder was examined at the 21st day from the treatment in accordance with the standard shown in Table 40. [table]
# [4] = test system: Echinochloa crus-galli (L.) Beauv. var. crusgall (Ec); test: Test for herbicidal effect by upland field soil treatment (Test Example 2), Ec
# Description: as §1
# [5] = 100 g/10 a active ingredient, examined at 21st day
# [6] = application amount (active ingredient) 100 g/10 a, examined at the 21st day from the treatment, index per Table 40
SMILES,Herbicidal effect to Ec [1],"Herbicidal effect to Se [2, 5]",Herbicidal effect to Eo [3],"Herbicidal effect to Ec [4, 5]","Herbicidal effect to Se [2, 6]","Herbicidal effect to Ec [4, 6]"
C=CCOc1ccccc1CS(=O)(=O)C1=NOC(C)(C)C1 [Compound 1-589],4 (A herbicidal effect or phytotoxicity of 70% to less than 90%),5 (A herbicidal effect or phytotoxicity of 90% or more),5 (A herbicidal effect or phytotoxicity of 90% or more),5 (A herbicidal effect or phytotoxicity of 90% or more),,
CC1(C)CC(S(=O)(=O)Cc2ccccc2)=NO1 [Compound 1-1],5 (A herbicidal effect or phytotoxicity of 90% or more),,5 (A herbicidal effect or phytotoxicity of 90% or more),,5 (A herbicidal effect or phytotoxicity of 90% or more),5 (A herbicidal effect or phytotoxicity of 90% or more)
CC1(C)CC(S(=O)(=O)Cc2cc(F)cc(F)c2F)=NO1 [Compound 1-508],4 (A herbicidal effect or phytotoxicity of 70% to less than 90%),5 (A herbicidal effect or phytotoxicity of 90% or more),5 (A herbicidal effect or phytotoxicity of 90% or more),5 (A herbicidal effect or phytotoxicity of 90% or more),,
CCC1(C)CC(S(=O)(=O)Cc2cccc(C)c2)=NO1 (stereo not drawn) [Compound 1-202],4 (A herbicidal effect or phytotoxicity of 70% to less than 90%),,5 (A herbicidal effect or phytotoxicity of 90% or more),,4 (A herbicidal effect or phytotoxicity of 70% to less than 90%),5 (A herbicidal effect or phytotoxicity of 90% or more)
CCOc1cccc(Cl)c1CS(=O)(=O)C1=NOC(C)(C)C1 [Compound 1-564],4 (A herbicidal effect or phytotoxicity of 70% to less than 90%),5 (A herbicidal effect or phytotoxicity of 90% or more),5 (A herbicidal effect or phytotoxicity of 90% or more),5 (A herbicidal effect or phytotoxicity of 90% or more),,
CCC1(C)CC(S(=O)(=O)Cc2ccccc2Cl)=NO1 (stereo not drawn) [Compound 1-192],4 (A herbicidal effect or phytotoxicity of 70% to less than 90%),,5 (A herbicidal effect or phytotoxicity of 90% or more),,5 (A herbicidal effect or phytotoxicity of 90% or more),5 (A herbicidal effect or phytotoxicity of 90% or more)
C=CCOc1cccc(C)c1CS(=O)(=O)C1=NOC(C)(C)C1 [Compound 1-606],4 (A herbicidal effect or phytotoxicity of 70% to less than 90%),5 (A herbicidal effect or phytotoxicity of 90% or more),5 (A herbicidal effect or phytotoxicity of 90% or more),5 (A herbicidal effect or phytotoxicity of 90% or more),,
Cc1cccc(CS(=O)(=O)C2=NOC(C)(C)C2)c1F [Compound 1-187],5 (A herbicidal effect or phytotoxicity of 90% or more),,5 (A herbicidal effect or phytotoxicity of 90% or more),,5 (A herbicidal effect or phytotoxicity of 90% or more),5 (A herbicidal effect or phytotoxicity of 90% or more)
C#CCOc1cccc(F)c1CS(=O)(=O)C1=NOC(C)(C)C1 [Compound 1-576],5 (A herbicidal effect or phytotoxicity of 90% or more),5 (A herbicidal effect or phytotoxicity of 90% or more),5 (A herbicidal effect or phytotoxicity of 90% or more),5 (A herbicidal effect or phytotoxicity of 90% or more),,
Cc1ccc(CS(=O)(=O)C2=NOC(C)(C)C2)cc1 [Compound 1-7],4 (A herbicidal effect or phytotoxicity of 70% to less than 90%),,5 (A herbicidal effect or phytotoxicity of 90% or more),,5 (A herbicidal effect or phytotoxicity of 90% or more),5 (A herbicidal effect or phytotoxicity of 90% or more)
CCOc1c(C)cccc1CS(=O)(=O)C1=NOC(C)(C)C1 [Compound 1-186],5 (A herbicidal effect or phytotoxicity of 90% or more),,5 (A herbicidal effect or phytotoxicity of 90% or more),,5 (A herbicidal effect or phytotoxicity of 90% or more),5 (A herbicidal effect or phytotoxicity of 90% or more)
CC1(C)CC(S(=O)(=O)Cc2cc(Br)cc(Br)c2)=NO1 [Compound 1-545],5 (A herbicidal effect or phytotoxicity of 90% or more),5 (A herbicidal effect or phytotoxicity of 90% or more),5 (A herbicidal effect or phytotoxicity of 90% or more),5 (A herbicidal effect or phytotoxicity of 90% or more),,
COc1ccc([N+](=O)[O-])cc1CS(=O)(=O)C1=NOC(C)(C)C1 [Compound 1-530],5 (A herbicidal effect or phytotoxicity of 90% or more),5 (A herbicidal effect or phytotoxicity of 90% or more),5 (A herbicidal effect or phytotoxicity of 90% or more),5 (A herbicidal effect or phytotoxicity of 90% or more),,
CC1(C)CC(S(=O)(=O)Cc2ccccc2I)=NO1 [Compound 1-521],5 (A herbicidal effect or phytotoxicity of 90% or more),5 (A herbicidal effect or phytotoxicity of 90% or more),5 (A herbicidal effect or phytotoxicity of 90% or more),5 (A herbicidal effect or phytotoxicity of 90% or more),,
CC1ON=C(S(=O)(=O)Cc2c(F)cccc2F)C1C (stereo not drawn) [Compound 1-496],5 (A herbicidal effect or phytotoxicity of 90% or more),,5 (A herbicidal effect or phytotoxicity of 90% or more),,4 (A herbicidal effect or phytotoxicity of 70% to less than 90%),5 (A herbicidal effect or phytotoxicity of 90% or more)
CC1(C)CC(S(=O)(=O)Cc2ccc(C(F)(F)F)cc2F)=NO1 [Compound 1-528],5 (A herbicidal effect or phytotoxicity of 90% or more),5 (A herbicidal effect or phytotoxicity of 90% or more),5 (A herbicidal effect or phytotoxicity of 90% or more),5 (A herbicidal effect or phytotoxicity of 90% or more),,
CC1(C)CC(S(=O)(=O)Cc2cccc(F)c2F)=NO1 [Compound 1-504],5 (A herbicidal effect or phytotoxicity of 90% or more),5 (A herbicidal effect or phytotoxicity of 90% or more),5 (A herbicidal effect or phytotoxicity of 90% or more),5 (A herbicidal effect or phytotoxicity of 90% or more),,
Cc1cccc(CS(=O)(=O)C2=NOC(C)(C)C2)c1 [Compound 1-6],4 (A herbicidal effect or phytotoxicity of 70% to less than 90%),,5 (A herbicidal effect or phytotoxicity of 90% or more),,5 (A herbicidal effect or phytotoxicity of 90% or more),5 (A herbicidal effect or phytotoxicity of 90% or more)
CC1(C)CC(S(=O)(=O)Cc2ccc(F)cc2F)=NO1 [Compound 1-505],5 (A herbicidal effect or phytotoxicity of 90% or more),5 (A herbicidal effect or phytotoxicity of 90% or more),5 (A herbicidal effect or phytotoxicity of 90% or more),5 (A herbicidal effect or phytotoxicity of 90% or more),,
CC1(C)CC(S(=O)(=O)Cc2cccc(Cl)c2)=NO1 [Compound 1-3],4 (A herbicidal effect or phytotoxicity of 70% to less than 90%),,5 (A herbicidal effect or phytotoxicity of 90% or more),,5 (A herbicidal effect or phytotoxicity of 90% or more),5 (A herbicidal effect or phytotoxicity of 90% or more)
CC1(C)CC(S(=O)(=O)Cc2ccccc2F)=NO1 [Compound 1-32],5 (A herbicidal effect or phytotoxicity of 90% or more),,5 (A herbicidal effect or phytotoxicity of 90% or more),,5 (A herbicidal effect or phytotoxicity of 90% or more),5 (A herbicidal effect or phytotoxicity of 90% or more)
